Results reported in patent publication US20230172936A1, “VCP/p97 INHIBITOR FOR THE TREATMENT OF CANCER” (Cleave Therapeutics, Inc., priority 2020, published 2023).
Read-outs that look alike come from different tables or passages of the source.

Assays:
MV-4-11 = assay: Combination Index (Chou-Talalay) of Compound 1 with additional therapeutic agents; type: cell-based, human; conditions: for Combination Index of Compound 1 + agent: MV-4-11, CI scores across all 3 ratios averaged
Protocol: (§1) Each combination was tested in 3 cell lines: MOML-13 (Human Acute Myeloid Leukemia cell line; Addex Bio), MV-4-11 (Human B Myelomoncytic Leukemia cell line; ATCC), and OCI-AML-3 (Human Acute Myeloid Leukemia cell line).
(§2) Within this range, 20 dose levels were tested for each combination, with each response determined in duplicate. […] The actual drug concentrations in the ratios were determined from the IC50 values obtained for each individual drug.
(§3) Raw data was analyzed using Graph Pad Prism, four parameter logistic fits, and Chou-Talalay drug combination analyses. […] For data points with Fe<0, the fractional effect was set to 0.001. Data points with Fe>0.99 or <0.01 were omitted from the Chou-Talalay analysis because the Chou-Talalay analysis fits data to the Log of the fractional effect, with equal weight applied across the range of effect, such that the high and low end of the dose response, very small changes in effect within the range of experimental error erroneously skew the outcome of the model fit.
(§4) A Combination Index (CI) vs Fractional Effect plot showing the actual combination index plotted vs Fractional effect value was plotted for each combination dose. In this analysis, CI=1 represents additive activity, CI>1 represent less than additive activity (often referred to as antagonism) and CI<1=synergistic activity (better than additive).

MOML-13 = assay: as above; type: cell-based, human; conditions: for Combination Index of Compound 1 + agent: MOML-13, CI scores across all 3 ratios averaged; for action of the combination with Compound 1 (synergistic, additive, antagonistic): MOML-13 (FLT3 heterozygous, BRCA2 mutant)
Protocol: as §1, §2, §3, §4

OCI-AML-3 = assay: as above; type: cell-based, human; conditions: for Combination Index of Compound 1 + agent: OCI-AML-3, CI scores across all 3 ratios averaged
Protocol: as §1, §2, §3, §4

MV4; 11 cell line = assay: Combination treatments, Cell Titer-Glo viability after 72 hours; type: cell-based, human
Protocol: (§5) The additional therapeutic agents for this example were azacitidine (Cayman Chemical Cat No. 11164), decitabine (Sigma Cat No. A3656) and venetoclax (InvivoChem Cat. No. V0001).
(§6) Cell Culture: Three human acute myeloid leukemia tumor cell lines were used in this study: HL60, MV4;11 and MOLM-13. HL60 and MV4;11 were grown in IMDM base media with 20% and 10% FBS, respectively. MOLM-13 was grown in RPMI 1640 base media with 20% FBS. All culture media contained 2 mM glutamine, 100 units/mL sodium penicillin G, […] gentamicin, and 100 μg/mL streptomycin sulfate. The tumor cells were cultured in tissue culture flasks in a humidified incubator at 37° C., in an atmosphere of 5% C02 and 95% air. Assay: Tumor cells were seeded in duplicate in a volume of 100 μL/well of media into 96-well micro-culture plates at initial densities low enough to allow for several population doublings (typically three to five) during the indicated incubation period. After a 24 hour incubation, test agents were added to each well. After 72 hours of culture with test articles, cell viability was determined using the Cell Titer-Glo® (Promega G7571) assay. Briefly, Cell Titer-Glo® (Promega G7571) reagents were equilibrated at room temperature for 30 minutes; 100 μL per well was added at endpoint (72 hours). Plates were gently shaken for two minutes and then incubated at room temperature for ten minutes prior to reading luminescence on the BMG Clariostar Plus microplate reader.
(§7) An IC50 ratio for each combination was calculated from the ratio of the combination IC50 as compared to the applicable no fixed agent (vehicle) control.

HL-60 cell line = assay: as above; type: cell-based, human
Protocol: as §5, §6, §7

MOML-13 cell line = assay: as above; type: cell-based, human
Protocol: as §5, §6, §7

[1] = system: human A549 lung adenocarcinoma xenograft tumors; assay: Tumor growth of A549 xenograft tumors; type: in vivo, mice; conditions: 55 mg/kg QD4/3 off
Source text: (§8) Group 1 received PO 4-days on, 3-days off doses (QD4/3 off) of vehicle.

[2] = Adverse events and visual impairment in Phase I subjects; conditions: at equivalent plasma exposure of Compound 1 and CB-5083
[3] = 55 mg/kg QD4/3 off
Source text: as §8

[4] = MV4, 11, fixed agent Compound 1 - 185 nM
[5] = HL-60, fixed agent Compound 1 - 210 nM
[6] = MOML-13, fixed agent Compound 1 - 75 nM

| SMILES | Combination Index of Compound 1 + agent (MV-4-11) | Combination Index of Compound 1 + agent (MOML-13) | Combination Index of Compound 1 + agent (OCI-AML-3) | further results |
| --- | --- | --- | --- | --- |
| COCC1(CO)C(=O)C2CCN1CC2 (stereo not shown) [APR-246] | 1.285 | 1.228 | 1.279 |  |
| C[C@@H]1COCCN1c1cc(C2([S@](C)(=N)=O)CC2)nc(-c2cc[nH]c3nccc2-3)n1 [AZD6738] | 1.228 | 1.338 | 1.421 |  |
| CN(C)CCCOc1ccc(-c2ccc3ncc4c(c3c2)n(C2CCOCC2)c(=O)n4C)cn1 [AZDO156] | 1.122 | 1.293 | 1.159 |  |
| Nc1ncn([C@@H]2O[C@H](CO)[C@@H](O)[C@H]2O)c(=O)n1 [Azacitidine, azacitidine, reference compound] |  |  |  | IC50 (MV4; 11 cell line; Homo sapiens, 72 h, MV4, 11, no fixed agent (vehicle), read-out: IC50): 1100 nM; Combination: Monotherapy IC50 Ratio (MV4; 11 cell line; [4]): 0.10; Combination: Monotherapy IC50 Ratio (HL-60 cell line; [5]): 0.82; IC50 (HL-60 cell line; Homo sapiens, 72 h, HL-60, no fixed agent (vehicle), read-out: IC50): 2400 nM; IC50 (MOML-13 cell line; Homo sapiens, 72 h, MOML-13, no fixed agent (vehicle), read-out: IC50): 445 nM; Combination: Monotherapy IC50 Ratio (MOML-13 cell line; [6]): 0.28 |
| Cc1cc2c(C(N)=O)cccc2n1-c1nc2c(c(NCc3ccccc3)n1)COCC2 [CB-5083, 1-[7,8-dihydro-4-[(phenylmethyl)amino]-5H-pyrano[4,3-d]pyrimidin-2-yl]-2-methyl-1H-indole-4-carboxamide, reference compound] |  |  |  | TGI [1]: 33%; symptoms of visual impairment or other visual adverse events [2]: visual adverse events as seen; drug-related deaths [3]: no drug-related deaths |
| Nc1ncn([C@H]2C[C@H](O)[C@@H](CO)O2)c(=O)n1 [Decitabine, decitabine, reference compound] |  |  |  | IC50 (MV4; 11 cell line; Homo sapiens, MV4-11, 72 h): 390 nM; Combination: Monotherapy IC50 Ratio (MV4; 11 cell line; [4]): 0.02; IC50 (MV4; 11 cell line; [4]): 7.1 nM; Combination: Monotherapy IC50 Ratio (HL-60 cell line; [5]): 0.76; IC50 (HL-60 cell line; [5]): 4030 nM; IC50 (HL-60 cell line; Homo sapiens, HL-60, 72 h): 5290 nM; IC50 (MOML-13 cell line; Homo sapiens, 72 h): 10.8 nM; Combination: Monotherapy IC50 Ratio (MOML-13 cell line; [6]): 0.60; IC50 (MOML-13 cell line; [6]): 6.5 nM |
| CCc1nc(C(N)=O)c(Nc2ccc(N3CCC(N4CCN(C)CC4)CC3)c(OC)c2)nc1NC1CCOCC1 [Gilteritinib] | 0.799 | 1.266 | 1.514 |  |
| CC(C)C[C@H](NC(=O)CNC(=O)c1cc(Cl)ccc1Cl)B(O)O [Ixazomib] | 1.546 | 1.413 | 1.438 | action of the combination with Compound 1 (synergistic, additive, antagonistic) (MV-4-11; MV-4-11 (FLT3 homozygous mutant)): antagonistic; action of the combination with Compound 1 (synergistic, additive, antagonistic) (MOML-13): antagonistic; action of the combination with Compound 1 (synergistic, additive, antagonistic) (OCI-AML-3; OCI-AML-3 (FLT3 wildtype)): antagonistic |
| COc1ccc([C@@H](O)c2cc(-c3ncnc4cc(N5CCOCC5)ccc34)c(F)cc2Cl)nn1 [Nedisertib] | 0.986 | 1.272 | 1.170 |  |
| NS(=O)(=O)OC[C@@H]1C[C@@H](n2ccc3c(N[C@H]4CCc5ccccc54)ncnc32)C[C@@H]1O [Pevonedistat] | 1.302 | 1.120 | 1.186 |  |
| Cn1ncnc1[C@H]1c2n[nH]c(=O)c3cc(F)cc(c23)N[C@@H]1c1ccc(F)cc1 [Talazoparib] | 0.769 | 0.529 | 0.986 | action of the combination with Compound 1 (synergistic, additive, antagonistic) (MOML-13): strong synergy |
| CC1(C)CCC(CN2CCN(c3ccc(C(=O)NS(=O)(=O)c4ccc(NCC5CCOCC5)c([N+](=O)[O-])c4)c(Oc4cnc5[nH]ccc5c4)c3)CC2)=C(c2ccc(Cl)cc2)C1 [Venetoclax] | 0.819 | 0.730 | 0.855 |  |
